# Counter-ions that a name gives are not always drawn. Like-named read-outs stand apart in the source and are kept apart here.
# System: behaviors of compound-treated mice
# Experiment: Neuropharmacological Assay (SmartCube)
# Assay type: in vivo
# Conditions: for minimal effective dose: Mus musculus, ip, 0.25 h, dose having 50% or more total activity in SmartCube, read-out: MED (minimal effective dose)
# Outline: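 Mice dosed i.p. 15 min before testing, with compound in N-methyl-2-pyrrolidone/PEG/propylene glycol, were video-recorded and algorithmically compared with reference-drug behavioral signatures. This gave class-match probabilities (antidepressant, anxiolytic, etc.) at the most efficacious of 3 doses. MED was defined as the dose with ≥50% total activity, usually tested across 0.3–30 mpk.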
# [1] = i.p. 15 min before behavioral test, most efficacious dose(s) of 3 doses
# [2] = SmartCube, i.p. 15 min before test, most efficacious dose(s)
smiles,measurement,setting,value
"NC[C@@H]1OCCc2c(-c3cn[nH]c3)cccc21 [Compound 116, (R)-(5-(1H-pyrazol-4-yl)isochroman-1-yl)methanamine hydrochloride salt]",minimal effective dose,i.p.,3 to 10 mg/kg
same,AD: ADHD (probability that activity matches class),[1],+ (LOQ ≤ + <5%)
same,AG: analgesic (probability that activity matches class),[1],+ (LOQ ≤ + <5%)
same,AX: anxiolytic (probability that activity matches class),[1],++ (5% ≤ ++ <25%)
same,CE: cognitive enhancer (probability that activity matches class),[1],+ (LOQ ≤ + <5%)
same,DP: anti-depressant (probability that activity matches class),[1],++++ (50% ≤ ++++)
same,MS: mood stabilizer (probability that activity matches class),[1],+ (LOQ ≤ + <5%)
same,PS: anti-psychotic (probability that activity matches class),[1],++ (5% ≤ ++ <25%)
same,SD: sedative hypnotic (probability that activity matches class),[1],+ (LOQ ≤ + <5%)
same,UN: uncharacterized CNS activity (probability that activity matches class),[1],++ (5% ≤ ++ <25%)
"CNC[C@@H]1OCCc2c(-c3ccncn3)cccc21 (single isomer, unassigned) [Compound 72, hydrochloride salt]",minimal effective dose,i.p.,> 30 mg/kg
same,AD: ADHD (probability that activity matches class),[1],+ (LOQ ≤ + <5%)
same,AG: analgesic (probability that activity matches class),[1],+ (LOQ ≤ + <5%)
same,AX: anxiolytic (probability that activity matches class),[1],+ (LOQ ≤ + <5%)
same,CE: cognitive enhancer (probability that activity matches class),[1],+ (LOQ ≤ + <5%)
same,DP: anti-depressant (probability that activity matches class),[1],+ (LOQ ≤ + <5%)
same,MS: mood stabilizer (probability that activity matches class),[1],+ (LOQ ≤ + <5%)
same,PS: anti-psychotic (probability that activity matches class),[1],+ (LOQ ≤ + <5%)
same,SD: sedative hypnotic (probability that activity matches class),[1],+ (LOQ ≤ + <5%)
same,UN: uncharacterized CNS activity (probability that activity matches class),[1],+ (LOQ ≤ + <5%)
"NC[C@H]1OCCc2c(-c3ccccn3)cccc21 (single isomer, unassigned) [Compound 46, hydrochloride]",minimal effective dose,i.p.,10 to 30 mg/kg
same,AD: ADHD (probability that activity matches class),[1],+ (LOQ ≤ + <5%)
same,AG: analgesic (probability that activity matches class),[1],+ (LOQ ≤ + <5%)
same,AX: anxiolytic (probability that activity matches class),[1],++ (5% ≤ ++ <25%)
same,CE: cognitive enhancer (probability that activity matches class),[1],+ (LOQ ≤ + <5%)
same,DP: anti-depressant (probability that activity matches class),[1],++ (5% ≤ ++ <25%)
same,MS: mood stabilizer (probability that activity matches class),[1],+ (LOQ ≤ + <5%)
same,PS: anti-psychotic (probability that activity matches class),[1],+ (LOQ ≤ + <5%)
same,SD: sedative hypnotic (probability that activity matches class),[1],+ (LOQ ≤ + <5%)
same,UN: uncharacterized CNS activity (probability that activity matches class),[1],++++ (50% ≤ ++++)
"CNC[C@@H]1OCCc2cc(-c3cccnc3)ccc21 [Compound 5, (R)-N-Methyl(6-(pyridin-3-yl)isochroman-1-yl)methanamine bis-hydrochloride]",minimal effective dose,i.p.,3 to 10 mg/kg
same,AD: ADHD (probability that activity matches class),[1],+ (LOQ ≤ + <5%)
same,AG: analgesic (probability that activity matches class),[1],++ (5% ≤ ++ <25%)
same,AX: anxiolytic (probability that activity matches class),[1],++ (5% ≤ ++ <25%)
same,CE: cognitive enhancer (probability that activity matches class),[1],+ (LOQ ≤ + <5%)
same,DP: anti-depressant (probability that activity matches class),[1],++++ (50% ≤ ++++)
same,MS: mood stabilizer (probability that activity matches class),[1],+ (LOQ ≤ + <5%)
same,PS: anti-psychotic (probability that activity matches class),[1],++ (5% ≤ ++ <25%)
same,SD: sedative hypnotic (probability that activity matches class),[1],+ (LOQ ≤ + <5%)
same,UN: uncharacterized CNS activity (probability that activity matches class),[1],+ (LOQ ≤ + <5%)
"CNCC1OCCc2c(-c3ccnnc3)cccc21 (stereo not shown) [Compound 54, N-Methyl-1-(5-(pyridazin-4-yl)isochroman-1-yl)methanamine hydrochloride salt]",minimal effective dose,i.p.,3 to 10 mg/kg
same,AD: ADHD (probability that activity matches class),[1],+ (LOQ ≤ + <5%)
same,AG: analgesic (probability that activity matches class),[1],+ (LOQ ≤ + <5%)
same,AX: anxiolytic (probability that activity matches class),[1],+ (LOQ ≤ + <5%)
same,CE: cognitive enhancer (probability that activity matches class),[1],++ (5% ≤ ++ <25%)
same,DP: anti-depressant (probability that activity matches class),[1],++++ (50% ≤ ++++)
same,MS: mood stabilizer (probability that activity matches class),[1],+ (LOQ ≤ + <5%)
same,PS: anti-psychotic (probability that activity matches class),[1],+ (LOQ ≤ + <5%)
same,SD: sedative hypnotic (probability that activity matches class),[1],+ (LOQ ≤ + <5%)
same,UN: uncharacterized CNS activity (probability that activity matches class),[1],+ (LOQ ≤ + <5%)
"CNC[C@@H]1OCCc2cc(-c3cccnn3)ccc21 (single isomer, unassigned) [Compound 31, hydrochloride]",minimal effective dose,i.p.,> 30 mg/kg
same,AD: ADHD (probability that activity matches class),[1],+ (LOQ ≤ + <5%)
same,AG: analgesic (probability that activity matches class),[1],+ (LOQ ≤ + <5%)
same,AX: anxiolytic (probability that activity matches class),[1],++ (5% ≤ ++ <25%)
same,CE: cognitive enhancer (probability that activity matches class),[1],+ (LOQ ≤ + <5%)
same,DP: anti-depressant (probability that activity matches class),[1],++ (5% ≤ ++ <25%)
same,MS: mood stabilizer (probability that activity matches class),[1],+ (LOQ ≤ + <5%)
same,PS: anti-psychotic (probability that activity matches class),[1],+ (LOQ ≤ + <5%)
same,SD: sedative hypnotic (probability that activity matches class),[1],+ (LOQ ≤ + <5%)
same,UN: uncharacterized CNS activity (probability that activity matches class),[1],+ (LOQ ≤ + <5%)
"CNC[C@H]1OCCc2c(-c3ncco3)cccc21 [Compound 105, (S)—N-methyl-1-(5-(oxazol-2-yl)isochroman-1-yl)methanamine dihydrochloride]",minimal effective dose,i.p.,3 to 10 mg/kg
same,AD: ADHD (probability that activity matches class),[1],+ (LOQ ≤ + <5%)
same,AG: analgesic (probability that activity matches class),[1],+ (LOQ ≤ + <5%)
same,AX: anxiolytic (probability that activity matches class),[1],+ (LOQ ≤ + <5%)
same,CE: cognitive enhancer (probability that activity matches class),[1],+ (LOQ ≤ + <5%)
same,DP: anti-depressant (probability that activity matches class),[1],++++ (50% ≤ ++++)
same,MS: mood stabilizer (probability that activity matches class),[1],+ (LOQ ≤ + <5%)
same,PS: anti-psychotic (probability that activity matches class),[1],+ (LOQ ≤ + <5%)
same,SD: sedative hypnotic (probability that activity matches class),[1],+ (LOQ ≤ + <5%)
same,UN: uncharacterized CNS activity (probability that activity matches class),[1],++ (5% ≤ ++ <25%)
"NC[C@H]1OCCc2ccc(-c3cccnc3)cc21 (single isomer, unassigned) [Compound 12, hydrochloride]",minimal effective dose,i.p.,10 to 30 mg/kg
same,AD: ADHD (probability that activity matches class),[1],+ (LOQ ≤ + <5%)
same,AG: analgesic (probability that activity matches class),[1],+ (LOQ ≤ + <5%)
same,AX: anxiolytic (probability that activity matches class),[1],+ (LOQ ≤ + <5%)
same,CE: cognitive enhancer (probability that activity matches class),[1],+ (LOQ ≤ + <5%)
same,DP: anti-depressant (probability that activity matches class),[1],++++ (50% ≤ ++++)
same,MS: mood stabilizer (probability that activity matches class),[1],+ (LOQ ≤ + <5%)
same,PS: anti-psychotic (probability that activity matches class),[1],++ (5% ≤ ++ <25%)
same,SD: sedative hypnotic (probability that activity matches class),[1],++ (5% ≤ ++ <25%)
same,UN: uncharacterized CNS activity (probability that activity matches class),[1],+ (LOQ ≤ + <5%)
"Cc1cc(-c2cccc3c2CCO[C@@H]3CN)ccn1 (single isomer, unassigned) [Compound 123, hydrochloride salt]",minimal effective dose,i.p.,≤ 3 mg/kg
same,AD: ADHD (probability that activity matches class),[1],++ (5% ≤ ++ <25%)
same,AG: analgesic (probability that activity matches class),[1],+ (LOQ ≤ + <5%)
same,AX: anxiolytic (probability that activity matches class),[1],++ (5% ≤ ++ <25%)
same,CE: cognitive enhancer (probability that activity matches class),[1],+ (LOQ ≤ + <5%)
same,DP: anti-depressant (probability that activity matches class),[1],++++ (50% ≤ ++++)
same,MS: mood stabilizer (probability that activity matches class),[1],+ (LOQ ≤ + <5%)
same,PS: anti-psychotic (probability that activity matches class),[1],+ (LOQ ≤ + <5%)
same,SD: sedative hypnotic (probability that activity matches class),[1],+ (LOQ ≤ + <5%)
same,UN: uncharacterized CNS activity (probability that activity matches class),[1],+ (LOQ ≤ + <5%)
"NC[C@@H]1OCCc2cccc(-c3cccnc3)c21 (single isomer, unassigned) [Compound 9, hydrochloride]",minimal effective dose,i.p.,10 to 30 mg/kg
same,AD: ADHD (probability that activity matches class),[1],+ (LOQ ≤ + <5%)
same,AG: analgesic (probability that activity matches class),[1],++ (5% ≤ ++ <25%)
same,AX: anxiolytic (probability that activity matches class),[1],++ (5% ≤ ++ <25%)
same,CE: cognitive enhancer (probability that activity matches class),[1],+ (LOQ ≤ + <5%)
same,DP: anti-depressant (probability that activity matches class),[1],++ (5% ≤ ++ <25%)
same,MS: mood stabilizer (probability that activity matches class),[1],+ (LOQ ≤ + <5%)
same,PS: anti-psychotic (probability that activity matches class),[1],++ (5% ≤ ++ <25%)
same,SD: sedative hypnotic (probability that activity matches class),[1],+ (LOQ ≤ + <5%)
same,UN: uncharacterized CNS activity (probability that activity matches class),[1],+ (LOQ ≤ + <5%)
"c1cc(-c2ccncc2)c2c(c1)[C@@H](CNC1CC1)OCC2 (single isomer, unassigned) [Compound 181, hydrochloride salt]",minimal effective dose,,≤ 3 mg/kg
same,AD: ADHD (probability that activity matches class),[2],++ (5% ≤ ++ <25%)
same,AG: analgesic (probability that activity matches class),[2],+ (LOQ ≤ + <5%)
same,AX: anxiolytic (probability that activity matches class),[2],+ (LOQ ≤ + <5%)
same,CE: cognitive enhancer (probability that activity matches class),[2],+ (LOQ ≤ + <5%)
same,DP: anti-depressant (probability that activity matches class),[2],++++ (50% ≤ ++++)
same,MS: mood stabilizer (probability that activity matches class),[2],+ (LOQ ≤ + <5%)
same,PS: anti-psychotic (probability that activity matches class),[2],+ (LOQ ≤ + <5%)
same,SD: sedative hypnotic (probability that activity matches class),[2],+ (LOQ ≤ + <5%)
same,UN: uncharacterized CNS activity (probability that activity matches class),[2],++ (5% ≤ ++ <25%)
"CNC[C@H]1OCCCc2c(-c3ccncn3)cccc21 (single isomer, unassigned) [Compound 165, hydrochloride salt]",minimal effective dose,i.p.,10 to 30 mg/kg
same,AD: ADHD (probability that activity matches class),[1],+ (LOQ ≤ + <5%)
same,AG: analgesic (probability that activity matches class),[1],+ (LOQ ≤ + <5%)
same,AX: anxiolytic (probability that activity matches class),[1],+ (LOQ ≤ + <5%)
same,CE: cognitive enhancer (probability that activity matches class),[1],+ (LOQ ≤ + <5%)
same,DP: anti-depressant (probability that activity matches class),[1],++ (5% ≤ ++ <25%)
same,MS: mood stabilizer (probability that activity matches class),[1],+ (LOQ ≤ + <5%)
same,PS: anti-psychotic (probability that activity matches class),[1],+ (LOQ ≤ + <5%)
same,SD: sedative hypnotic (probability that activity matches class),[1],+ (LOQ ≤ + <5%)
same,UN: uncharacterized CNS activity (probability that activity matches class),[1],+ (LOQ ≤ + <5%)
"CNC[C@H]1OCCCc2c(-c3ccncc3)cccc21 (single isomer, unassigned) [Compound 149]",minimal effective dose,i.p.,≤ 3 mg/kg
same,AD: ADHD (probability that activity matches class),[1],++ (5% ≤ ++ <25%)
same,AG: analgesic (probability that activity matches class),[1],+ (LOQ ≤ + <5%)
same,AX: anxiolytic (probability that activity matches class),[1],++ (5% ≤ ++ <25%)
same,CE: cognitive enhancer (probability that activity matches class),[1],+ (LOQ ≤ + <5%)
same,DP: anti-depressant (probability that activity matches class),[1],++++ (50% ≤ ++++)
same,MS: mood stabilizer (probability that activity matches class),[1],+ (LOQ ≤ + <5%)
same,PS: anti-psychotic (probability that activity matches class),[1],+ (LOQ ≤ + <5%)
same,SD: sedative hypnotic (probability that activity matches class),[1],+ (LOQ ≤ + <5%)
same,UN: uncharacterized CNS activity (probability that activity matches class),[1],++ (5% ≤ ++ <25%)

# From US10780074B2, “Compounds and uses thereof” (Sunovion Pharmaceuticals Inc., priority 2017, dated 2020)
